# Tests used:
# human GLP-1 receptor [1] = target: T1, human GLP-1 receptor (Homo sapiens, UniProt P43220); experiment: In vitro potency (CRE luciferase; whole cells); format: cell-based; design: EC50/pM (ratio 1% HSA/0% HSA): unit not given here; details: for EC50: BHK cells
# T1 construct: expressed in transfected cells; host or cells: BHK cells, clone FCW467-12A/KZ10-1 (parent line BHKTS13), further transfected with CRE luciferase
# Protocol: The purpose of this example is to test the activity, or potency, of the GLP-1 derivatives in vitro. The in vitro potency is the measure of human GLP-1 receptor activation in a whole cell assay.
# In vitro potency was determined by measuring the response of human GLP-1 receptor in a reporter gene assay. The assay was performed in a stably transfected BHK cell line that expresses the human GLP-1 receptor and contains the DNA for the cAMP response element (CRE) coupled to a promoter and the gene for firefly luciferase (CRE luciferase). When the human GLP-1 receptor was activated it results in the production of cAMP, which in turn results in the luciferase protein being expressed. When assay incubation was completed the luciferase substrate (luciferin) was added and the enzyme converts luciferin to oxyluciferin and produces bioluminescence. The luminescence was measured and was the readout for the assay.
# An increase of the in vitro potency, EC50 value, in the presence of serum albumin indicates an affinity to serum albumin and represents a method to predict a protracted pharmacokinetic profile of the test substance in animal models.
# The cells were cultured at 5% CO2 in cell culture medium. They were aliquoted and stored in liquid nitrogen. Before each assay an aliquot was taken up and washed twice in PBS before being suspended at the desired concentration in the assay specific buffer.
# The following chemicals were used in the assay: Pluronic F-68 (10%) (Gibco 2404), human serum albumin (HSA) (Sigma A9511), ovalbumin (Sigma A5503), DMEM w/o phenol red (Gibco 11880-028), 1 M Hepes (Gibco 15630), Glutamax 100× (Gibco 35050) and steadylite plus (PerkinElmer 6016757).
# 1) Cell stocks were thawed in a 37° C. water bath.
# 2) Cells were washed three times in PBS.
# 3) The cells were counted and adjusted to 5×10^3 cells/50 μl (1×10^5 cells/ml) in assay medium. A 50 μl aliquot of cells was transferred to each well in the assay plate.
# 4) Stocks of the test compounds and reference compounds were diluted to a concentration of 0.2 μM in 0% assay buffer for the 0% HSA CRE luciferase assay and 1% assay buffer for the HSA CRE luciferase assay. […] 5) A 50 μl aliquot of compound or blank was transferred in triplicate from the dilution plate to the assay plate. […] 7) The assay plate was removed from the incubator and allowed to stand at room temperature for 15 min. 8) A 100 μl aliquot of steadylite plus reagent was added to each well of the assay plate (reagent was light sensitive). 9) Each assay plate was covered with aluminum foil to protect it from light and shaken for 30 min at room temperature. 10) Each assay plate was read in a Packard TopCount NXT instrument. Calculations and Results
# The data from the TopCount instrument were transferred to GraphPad Prism software. The software averages the values for each replicate and performs a non-linear regression.
# human GLP-1 receptor [2] = target: T1, human GLP-1 receptor; experiment: GLP-1 receptor binding (SPA, displacement of 125I-GLP-1)
# Protocol: The purpose of this experiment is to investigate the binding to the GLP-1 receptor of the GLP-1 derivatives, and how the binding is potentially influenced by the presence of albumin. This is done in an in vitro experiment as described below.
# In order to test the binding of the derivatives to albumin, the assay was performed with a low concentration of albumin (0.001%—corresponding to the residual amount thereof in the tracer), as well as with a high concentration of albumin (2.0% added). A shift in the binding affinity, IC50, is an indication that the peptide in question binds to albumin, and thereby a prediction of a potential protracted pharmacokinetic profile of the peptide in question in animal models.
# Species (in vitro): Hamster
# Biological End Point: Receptor Binding
# A stable transfected cell line and a high expressing clone were selected for screening. The cells were grown at 5% CO2 in DMEM, 10% FCS, 1% Pen/Strep (Penicillin/Streptomycin) and 1.0 mg/ml of the selection marker G418.
# The cells (approx. 80% confluence) were washed twice in PBS and harvested with Versene (aqueous solution of the tetrasodium salt of ethylenediaminetetraacetic acid), following which they were separated by centrifugation at 1000 rpm for 5 min. The cells/cell pellet must be kept on ice to the extent possible in the subsequent steps. The cell pellet was homogenised with Ultrathurrax for 20-30 seconds in a suitable amount of Buffer 1 (depending on the amount of cells, but e.g. 10 ml). The homogenate was centrifuged at 20000 rpm for 15 minutes. The pellet was resuspended (homogenised) in 10 ml Buffer 2 and re-centrifuged. This step was repeated once more. The resulting pellet was resuspended in Buffer 2, and the protein concentration was determined. The membranes were stored at minus 80° C.
# Buffer 1:20 mM Na-HEPES+10 mM EDTA, pH 7.4
# Buffer 2:20 mM Na-HEPES+0.1 mM EDTA, pH 7.4
# Test compounds, membranes, SPA-particles and [^125I]-GLP-1(7-36)NH2 were diluted in assay buffer. 50 ul (micro liter) HSA (“high albumin” experiment containing 2% HSA), or buffer (“low albumin” experiment containing 0.001% HSA) was added to Optiplate, and 25 ul of test compounds were added. 5-10 ug membrane protein/sample was added (50 ul) corresponding to 0.1-0.2 mg protein/ml (to be preferably optimised for each membrane preparation). SPA-particles (Wheatgerm agglutinin SPA beads, Perkin Elmer, # RPNQ0001) were added in an amount of 0.5 mg/well (50 ul). The incubation was started with [^125I]-GLP-1]-(7-36)NH2 (final concentration 0.06 nM corresponding to 49.880 DPM, 25 ul). The plates were sealed with PlateSealer and incubated for 120 minutes at 30° C. while shaking. The plates were centrifuged (1500 rpm, 10 min) and counted in Topcounter.
# [3] = In vitro potency (CRE luciferase) EC50 (1% HSA), 1% HSA
# [4] = Receptor binding affinity IC50 (high HSA), 2.0% HSA (high albumin)
# [5] = Receptor binding affinity IC50 (low HSA), 0.001% HSA (low albumin)
# T1 sequence (P43220 24-463): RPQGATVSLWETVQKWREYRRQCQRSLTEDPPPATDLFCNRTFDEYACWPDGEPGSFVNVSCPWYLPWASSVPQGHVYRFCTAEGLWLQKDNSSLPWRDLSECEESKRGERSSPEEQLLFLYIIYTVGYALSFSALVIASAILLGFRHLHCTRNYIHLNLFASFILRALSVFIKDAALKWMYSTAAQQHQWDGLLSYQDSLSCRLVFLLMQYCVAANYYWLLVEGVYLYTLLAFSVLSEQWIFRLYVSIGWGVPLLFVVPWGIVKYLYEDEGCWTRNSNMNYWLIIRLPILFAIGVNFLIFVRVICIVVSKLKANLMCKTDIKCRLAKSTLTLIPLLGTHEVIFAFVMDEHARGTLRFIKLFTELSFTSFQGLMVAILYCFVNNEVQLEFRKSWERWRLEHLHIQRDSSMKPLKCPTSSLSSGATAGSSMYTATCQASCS
Structure (SMILES),EC50 (human GLP-1 receptor [1]; [3]),EC50/pM (ratio 1% HSA/0% HSA) (human GLP-1 receptor [1]; ratio of EC50 at 1% HSA to EC50 at 0% HSA),IC50 (human GLP-1 receptor [2]; [4]),IC50 (human GLP-1 receptor [2]; [5]),"EC50 (human GLP-1 receptor [1]; In vitro potency (CRE luciferase) EC50 (0% HSA), 0% HSA)"
"CC[C@H](C)[C@H](NC(=O)[C@H](Cc1ccccc1)NC(=O)[C@H](CCC(=O)O)NC(=O)[C@H](CCCCNC(=O)[C@@H](N)CCCCNC(=O)[C@@H](N)CCCCNC(=O)CC[C@H](NC(=O)CCCCCCCCCCOc1ccc(C(=O)O)cc1)C(=O)O)NC(=O)[C@H](C)NC(=O)[C@H](C)NC(=O)[C@H](CCC(N)=O)NC(=O)CNC(=O)[C@H](CCC(=O)O)NC(=O)[C@H](CC(C)C)NC(=O)[C@H](Cc1ccc(O)cc1)NC(=O)[C@H](CO)NC(=O)[C@H](CO)NC(=O)[C@@H](NC(=O)[C@H](CC(=O)O)NC(=O)[C@H](CO)NC(=O)[C@@H](NC(=O)[C@H](Cc1ccccc1)NC(=O)[C@@H](NC(=O)CNC(=O)[C@H](CCC(=O)O)NC(=O)C(C)(C)NC(=O)[C@@H](N)Cc1c[nH]cn1)[C@@H](C)O)[C@@H](C)O)C(C)C)C(=O)N[C@@H](C)C(=O)N[C@@H](Cc1c[nH]cn1)C(=O)N[C@@H](CC(C)C)C(=O)N[C@H](C(=O)N[C@@H](CCC(N)=O)C(=O)NCC(=O)N[C@@H](CCCNC(=N)N)C(=O)N[C@@H](CCCCNC(=O)[C@@H](N)CCCCNC(=O)[C@@H](N)CCCCNC(=O)CC[C@H](NC(=O)CCCCCCCCCCOc1ccc(C(=O)O)cc1)C(=O)O)C(=O)O)C(C)C [Example 31, N^ε26-[(2S)-2-amino-6-[[(2S)-2-amino-6-[[(4S)-4-carboxy-4-[11-(4-carboxyphenoxy)undecanoylamino]butanoyl]amino]hexanoyl]amino]hexanoyl], N^ε37-[(2S)-2-amino-6-[[(2S)-2-amino-6-[[(4S)-4-carboxy-4-[11-(4-carboxyphenoxy)undecanoylamino]butanoyl]amino]hexanoyl]amino]hexanoyl]-[Aib^8,His^31,Gln^34,Lys^37]-GLP-1-(7-37)-peptide]",550 pM,82,40000 pM,760 pM,–
CC[C@H](C)[C@H](NC(=O)[C@H](Cc1ccccc1)NC(=O)[C@H](CCC(=O)O)NC(=O)[C@H](CCCCNC(=O)[C@@H](N)CCCCNC(=O)[C@@H](N)CCCCNC(=O)[C@H](CO)NC(=O)[C@H](CO)NC(=O)CC[C@H](NC(=O)CCCCCCCCCCOc1ccc(C(=O)O)cc1)C(=O)O)NC(=O)[C@H](C)NC(=O)[C@H](C)NC(=O)[C@H](CCC(N)=O)NC(=O)CNC(=O)[C@H](CCC(=O)O)NC(=O)[C@H](CC(C)C)NC(=O)[C@H](Cc1ccc(O)cc1)NC(=O)[C@H](CO)NC(=O)[C@H](CO)NC(=O)[C@@H](NC(=O)[C@H](CC(=O)O)NC(=O)[C@H](CO)NC(=O)[C@@H](NC(=O)[C@H](Cc1ccccc1)NC(=O)[C@@H](NC(=O)CNC(=O)[C@H](CCC(=O)O)NC(=O)C(C)(C)NC(=O)[C@@H](N)Cc1c[nH]cn1)[C@@H](C)O)[C@@H](C)O)C(C)C)C(=O)N[C@@H](C)C(=O)N[C@@H](Cc1c[nH]c2ccccc12)C(=O)N[C@@H](CC(C)C)C(=O)N[C@H](C(=O)N[C@@H](CCCNC(=N)N)C(=O)NCC(=O)N[C@@H](CCCNC(=N)N)C(=O)N[C@@H](CCCCNC(=O)[C@@H](N)CCCCNC(=O)[C@@H](N)CCCCNC(=O)[C@H](CO)NC(=O)[C@H](CO)NC(=O)CC[C@H](NC(=O)CCCCCCCCCCOc1ccc(C(=O)O)cc1)C(=O)O)C(=O)O)C(C)C [Example 35],–,–,36000 pM,80 pM,5.5 pM
"CC[C@H](C)[C@H](NC(=O)[C@H](Cc1ccccc1)NC(=O)[C@H](CCC(=O)O)NC(=O)[C@H](CCCCNC(=O)[C@H](CCCCNC(=O)[C@H](CCCCNC(=O)CC[C@H](NC(=O)CCCCCCCCCCOc1ccc(C(=O)O)cc1)C(=O)O)N(C)C)N(C)C)NC(=O)[C@H](C)NC(=O)[C@H](C)NC(=O)[C@H](CCC(N)=O)NC(=O)CNC(=O)[C@H](CCC(=O)O)NC(=O)[C@H](CC(C)C)NC(=O)[C@H](Cc1ccc(O)cc1)NC(=O)[C@H](CO)NC(=O)[C@H](CO)NC(=O)[C@@H](NC(=O)[C@H](CC(=O)O)NC(=O)[C@H](CO)NC(=O)[C@@H](NC(=O)[C@H](Cc1ccccc1)NC(=O)[C@@H](NC(=O)CNC(=O)[C@H](CCC(=O)O)NC(=O)C(C)(C)NC(=O)[C@@H](N)Cc1c[nH]cn1)[C@@H](C)O)[C@@H](C)O)C(C)C)C(=O)N[C@@H](C)C(=O)N[C@@H](Cc1c[nH]c2ccccc12)C(=O)N[C@@H](CC(C)C)C(=O)N[C@H](C(=O)N[C@@H](CCCNC(=N)N)C(=O)NCC(=O)N[C@@H](CCCNC(=N)N)C(=O)N[C@@H](CCCCNC(=O)[C@H](CCCCNC(=O)[C@H](CCCCNC(=O)CC[C@H](NC(=O)CCCCCCCCCCOc1ccc(C(=O)O)cc1)C(=O)O)N(C)C)N(C)C)C(=O)O)C(C)C [Example 37, N^ε26-[(2S)-6-[[(2S)-6-[[(4S)-4-carboxy-4-[11-(4-carboxyphenoxy)undecanoylamino]butanoyl]amino]-2-(dimethylamino)hexanoyl]amino]-2-(dimethylamino)hexanoyl], N^ε37-[(2S)-6-[[(2S)-6-[[(4S)-4-carboxy-4-[11-(4-carboxyphenoxy)undecanoylamino]butanoyl]amino]-2-(dimethylamino)hexanoyl]amino]-2-(dimethylamino)hexanoyl]-[Aib^8,Arg^34,Lys^37]-GLP-1-(7-37)-peptide]",93 pM,–,24000 pM,–,–

# — US10604554B2, “Double-acylated GLP-1 derivatives” (Novo Nordisk A/S, priority 2012, dated 2020)
